According to patent US20210395256A1, “TYROSINE KINASE INHIBITORS, COMPOSITIONS AND METHODS THERE OF” (Betta Pharmaceuticals Co., Ltd., priority 2018, published 2021):
Counter-ions that a name gives are not always drawn.

These compounds were tested against TrkA kinase (Homo sapiens, UniProt P04629) (assay: TrkA kinase assay (mobility shift assay)). Conditions: class symbols; read-out: Trk A Kinase IC50.
Format: biochemical
Outline: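 Ten-point compound series was preincubated 10 min at room temperature with TrkA, then FAM-peptide plus ATP added in HEPES pH 7.5/Brij-35 buffer and reacted at 28 °C before EDTA quench.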

Chain of TrkA kinase (P04629 33-796): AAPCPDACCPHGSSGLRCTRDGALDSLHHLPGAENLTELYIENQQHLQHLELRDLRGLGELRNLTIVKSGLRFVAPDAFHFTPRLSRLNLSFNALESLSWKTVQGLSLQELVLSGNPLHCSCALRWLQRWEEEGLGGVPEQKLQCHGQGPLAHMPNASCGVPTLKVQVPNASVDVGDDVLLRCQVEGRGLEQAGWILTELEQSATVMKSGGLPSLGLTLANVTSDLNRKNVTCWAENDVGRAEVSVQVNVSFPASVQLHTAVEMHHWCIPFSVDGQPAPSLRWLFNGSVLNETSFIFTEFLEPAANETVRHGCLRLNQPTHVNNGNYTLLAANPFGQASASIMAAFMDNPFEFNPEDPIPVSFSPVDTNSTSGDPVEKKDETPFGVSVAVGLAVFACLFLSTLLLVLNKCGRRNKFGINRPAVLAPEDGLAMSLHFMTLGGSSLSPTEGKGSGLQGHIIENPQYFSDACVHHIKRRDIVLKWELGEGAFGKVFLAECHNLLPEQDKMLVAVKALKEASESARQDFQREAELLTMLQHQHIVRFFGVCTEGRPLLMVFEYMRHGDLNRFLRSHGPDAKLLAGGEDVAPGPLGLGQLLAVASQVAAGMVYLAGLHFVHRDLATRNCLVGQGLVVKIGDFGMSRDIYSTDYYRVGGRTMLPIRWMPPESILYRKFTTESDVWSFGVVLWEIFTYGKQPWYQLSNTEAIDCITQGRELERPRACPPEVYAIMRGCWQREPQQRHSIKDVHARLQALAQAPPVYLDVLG

Row | IC50 [nM] | Structure (SMILES)
1 | ≤ 10 | CC(O)c1ccc2nc(-c3cnn4ccc(N5CCC[C@@H]5c5cc(F)ccc5F)nc34)oc2c1 (stereo partly drawn) [Compound 68, 1-(2-(5-((R)-2-(2,5-difluorophenyl)pyrrolidin-1-yl)pyrazolo[1,5-a]pyrimidin-3-yl)benzo[d]oxazol-6-yl)ethan-1-ol]
2 | 10 to 50 | N#Cc1ccc2[nH]c(-c3cnn4ccc(N5CCC[C@@H]5c5cc(F)ccc5F)nc34)cc2c1 [Compound 133, (R)-2-(5-(2-(2,5-difluorophenyl)pyrrolidin-1-yl)pyrazolo[1,5-a]pyrimidin-3-yl)-1H-indole-5-carbonitrile]
3 | 10 to 50 | CC(C)[C@H](N)C(=O)N[C@H](C(=O)O[C@@H](C)c1nnc(-c2cnn3ccc(N4CCC[C@@H]4c4cc(F)ccc4F)nc23)[nH]1)C(C)C [Compound 55, (S)-1-(5-(5-((R)-2-(2,5-difluorophenyl)pyrrolidin-1-yl)pyrazolo[1,5-a]pyrimidin-3-yl)-4H-1,2,4-triazol-3-yl)ethyl L-valylvalinate hydrochloride]
4 | 10 to 50 | Fc1ccc(F)c([C@H]2CCCN2c2ccn3ncc(-c4nnc(C5CCOC5)[nH]4)c3n2)c1 (stereo partly drawn) [Compound 3, 5-((R)-2-(2,5-difluorophenyl)pyrrolidin-1-yl)-3-(5-(tetrahydrofuran-3-yl)-4H-1,2,4-triazol-3-yl)pyrazolo[1,5-a]pyrimidine]
5 | ≤ 10 | CN1CCN(c2cc3[nH]c(-c4cnn5ccc(N6CCC[C@@H]6c6cc(F)ccc6F)nc45)nc3cc2C#N)CC1 [Compound 163, (R)-2-(5-(2-(2,5-difluorophenyl)pyrrolidin-1-yl)pyrazolo[1,5-a]pyrimidin-3-yl)-6-(4-methylpiperazin-1-yl)-1H-benzo[d]imidazole-5-carbonitrile]
6 | > 50 | COc1cc2oc(-c3cnn4ccc(N5CCC[C@@H]5c5cc(F)ccc5F)nc34)nc2cc1CN1CCC[C@H]1C(=O)O [Compound 180, ((2-(5-((R)-2-(2,5-difluorophenyl)pyrrolidin-1-yl)pyrazolo[1,5-a]pyrimidin-3-yl)-6-methoxybenzo[d]oxazol-5-yl)methyl)-L-proline]
7 | 10 to 50 | Fc1ccc(F)c([C@H]2CCCN2c2ccn3ncc(-c4nc5cc6c(cc5[nH]4)OCCOCCOCCO6)c3n2)c1 [Compound 82, (R)-2-(5-(2-(2,5-difluorophenyl)pyrrolidin-1-yl)pyrazolo[1,5-a]pyrimidin-3-yl)-6,7,9,10,12,13-hexahydro-1H-[1,4,7,10]tetraoxacyclododecino[2′,3′:4,5]benzo[1,2-d]imidazole]
8 | ≤ 10 | C#CC(O)c1nnc(-c2cnn3ccc(N4CCC[C@@H]4c4cc(F)ccc4F)nc23)[nH]1 (stereo partly drawn) [Compound 48, 1-(5-(5-((R)-2-(2,5-difluorophenyl)pyrrolidin-1-yl)pyrazolo[1,5-a]pyrimidin-3-yl)-4H-1,2,4-triazol-3-yl)prop-2-yn-1-ol]
9 | 10 to 50 | COc1cc2nc(-c3cnn4ccc(N5CCC[C@@H]5c5cc(F)ccc5F)nc34)[nH]c2cc1C(=O)NO [Compound 89, (R)-2-(5-(2-(2,5-difluorophenyl)pyrrolidin-1-yl)pyrazolo[1,5-a]pyrimidin-3-yl)-N-hydroxy-5-methoxy-1H-benzo[d]imidazole-6-carboxamide]
10 | > 50 | Cn1c(-c2cnn3ccc(N4CCC[C@@H]4c4cc(F)ccc4F)nc23)nc2cc3c(cc21)OCCO3 [Compound 83, (R)-2-(5-(2-(2,5-difluorophenyl)pyrrolidin-1-yl)pyrazolo[1,5-a]pyrimidin-3-yl)-1-methyl-6,7-dihydro-1H-[1,4]dioxino[2′,3′:4,5]benzo[1,2-d]imidazole]
11 | ≤ 10 | Fc1ccc(F)c([C@H]2CCCN2c2ccn3ncc(-c4nc5cnccc5s4)c3n2)c1 [Compound 75, (R)-2-(5-(2-(2,5-difluorophenyl)pyrrolidin-1-yl)pyrazolo[1,5-a]pyrimidin-3-yl)thiazolo[4,5-c]pyridine]
12 | ≤ 10 | COc1cc2nc(-c3cnn4ccc(N5CCC[C@@H]5c5cc(F)ccc5F)nc34)[nH]c2cc1C(C)O (stereo partly drawn) [Compound 66, 1-(2-(5-((R)-2-(2,5-difluorophenyl)pyrrolidin-1-yl)pyrazolo[1,5-a]pyrimidin-3-yl)-5-methoxy-1H-benzo[d]imidazol-6-yl)ethan-1-ol]

Same assay, conditions: numeric values; read-out: Trk A Kinase IC50

Row | IC50 [nM] | Structure (SMILES)
13 | 32.9 | Fc1ccc(F)c([C@H]2CCCN2c2ccn3ncc(-c4nc5cc(Cl)c(Cl)cc5[nH]4)c3n2)c1 [Compound 105, (R)-3-(5,6-dichloro-1H-benzo[d]imidazol-2-yl)-5-(2-(2,5-difluorophenyl)pyrrolidin-1-yl)pyrazolo[1,5-a]pyrimidine]
14 | 2.41 | CC(C)(CO)c1nnc(-c2cnn3ccc(N4CCC[C@@H]4c4cc(F)ccc4F)nc23)[nH]1 [Compound 33, (R)-2-(5-(5-(2-(2,5-difluorophenyl)pyrrolidin-1-yl)pyrazolo[1,5-a]pyrimidin-3-yl)-4H-1,2,4-triazol-3-yl)-2-methylpropan-1-ol]
15 | 1.1 | Fc1ccc(F)c([C@H]2CCCN2c2ccn3ncc(-c4nc5cc6c(cc5[nH]4)OCCCO6)c3n2)c1 [Compound 134, (R)-2-(5-(2-(2,5-difluorophenyl)pyrrolidin-1-yl)pyrazolo[1,5-a]pyrimidin-3-yl)-7,8-dihydro-1H,6H-[1,4]dioxepino[2′,3′:4,5]benzo[1,2-d]imidazole]
16 | 3.8 | Fc1ccc(F)c([C@H]2CCCN2c2ccn3ncc(-c4nc5ccc(C(F)(F)F)nc5[nH]4)c3n2)c1 [Compound 114, (R)-2-(5-(2-(2,5-difluorophenyl)pyrrolidin-1-yl)pyrazolo[1,5-a]pyrimidin-3-yl)-5-(trifluoromethyl)-3H-imidazo[4,5-b]pyridine]
17 | 6.4 | Fc1ccc(F)c([C@H]2CCCN2c2ccn3ncc(-c4nnc(C5COCCN5)[nH]4)c3n2)c1 (stereo partly drawn) [Compound 49, 3-(5-(5-((R)-2-(2,5-difluorophenyl)pyrrolidin-1-yl)pyrazolo[1,5-a]pyrimidin-3-yl)-4H-1,2,4-triazol-3-yl)morpholine]
18 | 2.3 | COc1cc2[nH]c(-c3cnn4ccc(N5CCC[C@@H]5c5ccccc5F)nc34)nc2cc1C#N [Compound 195, (R)-2-(5-(2-(2-fluorophenyl)pyrrolidin-1-yl)pyrazolo[1,5-a]pyrimidin-3-yl)-6-methoxy-1H-benzo[d]imidazole-5-carbonitrile]
19 | 0.6 | Fc1ccc(F)c([C@H]2CCCN2c2ccn3ncc(-c4nnc(-c5ccc6nc[nH]c6c5)[nH]4)c3n2)c1 [Compound 57, (R)-3-(5-(1H-benzo[d]imidazol-6-yl)-4H-1,2,4-triazol-3-yl)-5-(2-(2,5-difluorophenyl)pyrrolidin-1-yl)pyrazolo[1,5-a]pyrimidine]
20 | 1.4 | CC(O)(Cc1nnc(-c2cnn3ccc(N4CCC[C@@H]4c4cc(F)ccc4F)nc23)[nH]1)C(F)(F)F (stereo partly drawn) [Compound 29, 3-(5-(5-((R)-2-(2,5-difluorophenyl)pyrrolidin-1-yl)pyrazolo[1,5-a]pyrimidin-3-yl)-4H-1,2,4-triazol-3-yl)-1,1,1-trifluoro-2-methylpropan-2-ol]
21 | 0.76 | Cc1cc2[nH]c(-c3cnn4ccc(N5CCC[C@@H]5c5cc(F)ccc5F)nc34)nc2cn1 [Compound 86, (R)-2-(5-(2-(2,5-difluorophenyl)pyrrolidin-1-yl)pyrazolo[1,5-a]pyrimidin-3-yl)-6-methy1-1H-imidazo[4,5-c]pyridine]
22 | 20.4 | Fc1ccc(F)c([C@H]2CCCN2c2ccn3ncc(-c4cc5ccc(F)cc5[nH]4)c3n2)c1 [Compound 183, (R)-5-(2-(2,5-difluorophenyl)pyrrolidin-1-yl)-3-(6-fluoro-1H-indol-2-yl)pyrazolo[1,5-a]pyrimidine]
